{
  "source": "patent US20250099475A1",
  "about": "“METHODS OF TREATING HYPERTENSION BY PERIODIC SUPPRESSION OF ALDOSTERONE SYNTHASE” (Mineralys Therapeutics, Inc., priority 2022, published 2025)",
  "origin": "cited, not measured here",
  "conditions": "in vivo; cited from earlier work",
  "data": [
    {"smiles": "CC(=O)S[C@@H]1CC2=CC(=O)CC[C@]2(C)[C@H]2CC[C@@]3(C)[C@@H](CC[C@@]34CCC(=O)O4)[C@H]12", "note": "[Spironolactone]", "values": [
      {"measurement": "risk of hyperkalemia", "result": "≤ 10", "unit": "%"}
    ]}
  ]
}
